# Data published in patent publication US9884048B2, “ERK inhibitors” (Merck Sharp & Dohme Corp., priority 2014, dated 2018).
# Target: phosphorylated active hERK2 enzyme (Homo sapiens (Human), UniProt P28482)
# Conditions: not given
# Chain of phosphorylated active hERK2 enzyme (P28482 whole entry): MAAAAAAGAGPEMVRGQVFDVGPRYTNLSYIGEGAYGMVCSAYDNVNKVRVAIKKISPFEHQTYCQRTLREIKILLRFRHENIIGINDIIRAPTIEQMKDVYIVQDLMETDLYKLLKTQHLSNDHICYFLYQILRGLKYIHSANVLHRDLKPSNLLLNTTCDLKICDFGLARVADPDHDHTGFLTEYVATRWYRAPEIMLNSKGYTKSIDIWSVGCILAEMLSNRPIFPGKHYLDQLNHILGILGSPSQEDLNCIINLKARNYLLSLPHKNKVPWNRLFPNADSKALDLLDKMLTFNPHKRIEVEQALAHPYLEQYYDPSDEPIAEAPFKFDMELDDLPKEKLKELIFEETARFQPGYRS
row,IC50 [nM],Structure (SMILES)
1,66.6,"Cc1cc(-n2ncc3cc(NC(=O)N[C@H]4CCC[C@@H]4Oc4ccc(F)cc4)ncc32)ccn1 (racemic) [Example 166, Racemic trans 1-[(1S,2S) and (1R,2R)-2-(4-fluorophenoxy)cyclopentyl]-3-[1-(2-methylpyridin-4-yl)-1H-pyrazolo[3,4-c]-pyridin-5-yl)urea]"
2,19.1,"Cc1cc(-n2ncc3cc(NC(=O)N[C@H]4CCCC[C@H]4c4ccc(F)cc4)ncc32)ccn1 (racemic) [Example 174, Racemic cis 1-[(1S,2S) and (1R,2R)-2-(4-fluorophenyl)cyclohexyl]-3-[1-(2-methylpyridin-4-yl)-1H-pyrazolo[3,4-c]pyridin-5-yl]urea]"

# Same assay, conditions: read-out: ERK2 IC50; IMAP-FP assay; 0.5 nM hERK2, 30 μM ATP; 10 point titration, 3 μM starting concentration
row,Structure (SMILES),IC50 [nM]
1,"CCO[C@H]1CN(Cc2ccccc2C(F)(F)F)C[C@@H]1NC(=O)Nc1cc2cnn(-c3ccnc(C)c3)c2cn1 [Example 279, 1-{(3S,4S)-4-ethoxy-1-[2-(trifluoromethyl)benzyl]pyrrolidin-3-yl}-3-[1-(2-methylpyridin-4-yl)-1H-pyrazolo[3,4-c]pyridin-5-yl]urea]",1750
2,"O=C(NCc1cccnc1)Nc1cc2cnn(-c3ccncc3)c2cn1 [Example 39, 1-(pyridin-3-ylmethyl)-3-(1-pyridin-4-yl-1H-pyrazolo[3,4-c]pyridin-5-yl)urea]",171
3,"COC[C@@H](NC(=O)Nc1cc2cnn(C3CCOCC3)c2cn1)c1ccccc1 [Example 259, (S)-1-(2-methoxy-1-phenylethyl)-3-(1-(tetrahydro-2H-pyran-4-yl)-1H-pyrazolo[3,4-c]pyridin-5-yl)urea]",196
4,"C[C@@H](NC(=O)Nc1cc2cnn(C3CCOCC3)c2cn1)c1ccccc1 [Example 238, 1-[(1R)-1-phenylethyl]-3-[1-(tetrahydro-2H-pyran-4-yl)-1H-pyrazolo[3,4-c]pyridin-5-yl]urea]",147
5,Cc1cc(-n2ncc3cc(NC(=O)NC4CCCN(Cc5cccnc5)C4)ncc32)ccn1 (stereo not shown) [Example 265],115
6,"Cc1cc(-n2ncc3cc(NC(=O)NCc4cnn(-c5ccc(F)cc5)c4)ncc32)ccn1 [Example 60, 1-{[1-(4-fluorophenyl)-1H-pyrazol-4-yl]methyl}-3-[1-(2-methylpyridin-4-yl)-1H-pyrazolo[3,4-c]pyridin-5-yl]urea]",1630
7,"Cc1cc(-n2ncc3cc(NC(=O)NCCOCc4ccccc4)ncc32)ccn1 [Example 95, 1-[2-(benzyloxy)ethyl]-3-[1-(2-methylpyridin-4-yl)-1H-pyrazolo[3,4-c]pyridin-5-yl]urea]",5.4
8,"Cc1cc(-n2ncc3cc(NC(=O)NCc4csc5ccccc45)ncc32)ccn1 [Example 125, 1-(1-benzothiophen-3-ylmethyl)-3-[1-(2-methylpyridin-4-yl)-1H-pyrazolo[3,4-c]pyridin-5-yl)urea]",84.5
9,"C[C@@H](NC(=O)Nc1cc2cnn(CC3CC3)c2c(CO)n1)c1ccccc1 [Example 308, 1-[1-(cyclopropylmethyl)-7-(hydroxymethyl)-1H-pyrazolo[3,4-c]pyridin-5-yl]-3-[(1R)-1-phenylethyl]urea]",79.5
10,"Cc1cc(-n2ncc3cc(NC(=O)NCc4ccc(C(C)(C)O)cc4)ncc32)ccn1 [Example 86, 1-[4-(1-hydroxy-1-methylethyl)benzyl]-3-[1-(2-methylpyridin-4-yl)-1H-pyrazolo[3,4-c]pyridin-5-yl)urea]",731
11,"C[C@H](NC(=O)Nc1cc2cnn(-c3ccc(F)cc3)c2cn1)c1ccccn1 [Example 221, 1-[1-(4-fluorophenyl)-1H-pyrazolo[3,4-c]pyridin-5-yl]-3-[(1S)-1-pyridin-2-ylethyl]urea]",1790
12,"Cc1cc(-n2ncc3cc(NC(=O)NCCN(C)C)ncc32)ccn1 [Example 15, 1-(2-(dimethylamino)ethyl)-3-(1-(2-methylpyridin-4-yl)-1H-pyrazolo[3,4-c]pyridin-5-yl)urea]",1430
13,"Cc1cc(-n2ncc3cc(NC(=O)N[C@H]4CN(C)C[C@@H]4CCc4ccccc4)ncc32)ccn1 [Example 115, 1-[(3R,4S)-1-methyl-4-(2-phenylethyl)pyrrolidin-3-yl]-3-[1-(2-methylpyridin-4-yl)-1H-pyrazolo[3,4-c]-pyridin-5-yl)urea]",0.689
14,"Cc1cc(-n2ncc3cc(NC(=O)NCC(c4ccccn4)N4CCOCC4)ncc32)ccn1 (stereo not shown) [Example 73, 1-[1-(2-methylpyridin-4-yl)-1H-pyrazolo[3,4-c]pyridin-5-yl]-3-(2-morpholin-4-yl-2-pyridin-2-ylethyl)urea]",243
15,"Cc1cc(-n2ncc3cc(NC(=O)NC4CCCN(Cc5cccnc5Cl)C4)ncc32)ccn1 (stereo not shown) [Example 268, 1-{1-[(2-chloropyridin-3-yl)methyl]piperidin-3-yl}-3-[1-(2-methylpyridin-4-yl)-1H-pyrazolo[3,4-c]pyridin-5-yl]urea]",18.6
16,"Cc1cc(-n2ncc3cc(NC(=O)NCc4c(C)nn(C)c4C)ncc32)ccn1 [Example 116, 1-[1-(2-methylpyridin-4-yl)-1H-pyrazolo[3,4-c]pyridin-5-yl]-3-[(1,3,5-trimethyl-1H-pyrazol-4-yl)methyl]urea]",27.6
17,"Cc1cc(-n2ncc3cc(NC(=O)N[C@H]4COC[C@@H]4c4ccccc4)ncc32)ccn1 [Example 17, 1-[1-(2-methylpyridin-4-yl)-1H-pyrazolo[3,4-c]pyridin-5-yl]-3-[(3R,4R)-4-phenyltetrahydrofuran-3-yl]urea]",1.83
18,"Cc1cc(-n2ncc3cc(NC(=O)NCc4cc(C)nn4C)ncc32)ccn1 [Example 119, 1-[(1,3-dimethyl-1H-pyrazol-5-yl)methyl]-3-[1-(2-methylpyridin-4-yl)-1H-pyrazolo[3,4-c]pyridin-5-yl)urea]",96.6
19,"Cc1cc(-n2ncc3cc(NC(=O)N[C@@H]4CCN(C)C4)ncc32)ccn1 [Example 20, 1-[1-(2-methylpyridin-4-yl)-1H-pyrazolo[3,4-c]pyridin-5-yl]-3-[(3R)-1-methylpyrrolidin-3-yl)urea]",50.5
20,"CCO[C@H]1CN(Cc2c(F)cccc2F)C[C@@H]1NC(=O)Nc1cc2cnn(-c3ccnc(C)c3)c2cn1 [Example 278, 1-[(3S,4S)-1-(2,6-difluorobenzyl)-4-ethoxypyrrolidin-3-yl]-3-[1-(2-methylpyridin-4-yl)-1H-pyrazolo[3,4-c]pyridin-5-yl]urea]",45.3
21,"Cc1cc(-n2ncc3cc(NC(=O)NC4CCN(C)C4=O)ncc32)ccn1 (stereo not shown) [Example 23, 1-(1-methyl-2-oxopyrrolidin-3-yl)-3-[1-(2-methylpyridin-4-yl)-1H-pyrazolo[3,4-c]pyridin-5-yl)urea]",314

# Other lines, results leading:
row,IC50 [nM],Structure (SMILES)
1,2240,"C[C@@H](NC(=O)Nc1cc2cnn(-c3ccc(F)cc3)c2c(CN2CCOCC2)n1)c1ccccc1 [Example 242, 1-[1-(4-fluorophenyl)-7-(morpholin-4-ylmethyl)-1H-pyrazolo[3,4-c]pyridin-5-yl]-3-[(1R)-1-phenylethyl]urea]"
2,10.7,"Cc1cc(-n2ncc3cc(NC(=O)NC(C)c4cccc(OC(F)(F)F)c4)ncc32)ccn1 (stereo not shown) [Example 48, 1-[1-(2-methylpyridin-4-yl)-1H-pyrazolo[3,4-c]pyridin-5-yl]-3-{1-[3-(trifluoromethoxy)phenyl]ethyl}urea]"
3,35.3,"CCn1ncc2cc(NC(=O)N[C@H](C)c3ccccc3)nc(OCCO)c21 [Example 258, 1-[1-ethyl-7-(2-hydroxyethoxy)-1H-pyrazolo[3,4-c]pyridin-5-yl]-3-[(1R)-1-phenylethyl]urea]"
4,2030,"Cc1cc(-n2ncc3cc(NC(=O)NC(C)c4csc(C)n4)ncc32)ccn1 (stereo not shown) [Example 128, 1-[1-(2-methylpyridin-4-yl)-1H-pyrazolo[3,4-c]pyridin-5-yl]-3-[1-(2-methyl-1,3-thiazol-4-yl)ethyl]urea]"
5,1580,"C[C@@H](NC(=O)Nc1cc2cnn(-c3ccc(F)cc3)c2c(CN(C)C)n1)c1ccccc1 [Example 243, 1-{7-[(dimethylamino)methyl]-1-(4-fluorophenyl)-1H-pyrazolo[3,4-c]pyridin-5-yl}-3-[(1R)-1-phenylethyl]urea]"
6,123,"Cc1cc(-n2ncc3cc(NC(=O)N[C@H](CN(C)C)c4ccccc4)ncc32)ccn1 [Example 130, 1-[(1S)-2-(dimethylamino)-1-phenylethyl]-3-[1-(2-methylpyridin-4-yl)-1H-pyrazolo[3,4-c]pyridin-5-yl)urea]"
7,11.4,"COCCOCc1nc(NC(=O)N[C@H](C)c2ccccc2)cc2cnn(-c3ccnc(C)c3)c12 [Example 248, 1-{7-[(2-methoxyethoxy)methyl]-1-(2-methylpyridin-4-yl)-1H-pyrazolo[3,4-c]pyridin-5-yl}-3-[(1R)-1-phenylethyl]urea]"
8,208,"Cc1ccc(-n2ncc3cc(NC(=O)N[C@H](C)c4ccccc4)ncc32)nn1 [Example 213, 1-[1-(6-methylpyridazin-3-yl)-1H-pyrazolo[3,4-c]pyridin-5-yl]-3-[(1R)-1-phenylethyl]urea]"
9,1.02,"Cc1cc(-n2ncc3cc(NC(=O)N[C@H](CO)c4ccccc4)ncc32)ccn1 [Example 65, 1-[(1S)-2-hydroxy-1-phenylethyl]-3-[1-(2-methylpyridin-4-yl)-1H-pyrazolo[3,4-c]pyridin-5-yl]urea]"
10,1.06,"Cc1cc(-n2ncc3cc(NC(=O)N[C@@H](c4ccccc4)C(C)O)ncc32)ccn1 (stereo partly drawn) [Example 297, (S)-1-(2-hydroxy-1-phenylpropyl)-3-(1-(2-methylpyridin-4-yl)-1H-pyrazolo[3,4-c]pyridin-5-yl)urea]"
11,1260,"C[C@@H](NC(=O)Nc1cc2cnn(C(C)(C)C)c2c(CO)n1)c1ccccc1 [Example 255, 1-[1-tert-butyl-7-(hydroxymethyl)-1H-pyrazolo[3,4-c]pyridin-5-yl]-3-[(1R)-1-phenylethyl]urea]"
12,2.81,"Cc1cc(-n2ncc3cc(NC(=O)N[C@H](C)c4ccccc4)nc(C)c32)ccn1 [Example 251, 1-[7-methyl-1-(2-methylpyridin-4-yl)-1H-pyrazolo[3,4-c]pyridin-5-yl]-3-[(1R)-1-phenylethyl]urea]"
13,40.3,Cc1cc(-n2ncc3cc(NC(=O)NC(C)c4ccc(OC(F)(F)F)cc4)ncc32)ccn1 (stereo not shown) [Example 47]
14,40.7,"Cc1cc(-n2ncc3cc(NC(=O)NC4CCOc5ccccc54)ncc32)ccn1 (stereo not shown) [Example 172, 1-(3,4-dihydro-2H-chromen-4-yl)-3-[1-(2-methylpyridin-4-yl)-1H-pyrazolo[3,4-c]pyridin-5-yl)urea]"
